Test results reported in patent US10752616B2, “Bicycloheteroaryl-heteroaryl-benzoic acid compounds as retinoic acid receptor beta (RARβ) agonists” (King's College London, priority 2014, dated 2020).

Experiments:
Assay type in all cases: cell-based
[1] = molecular target: RARγ (Mus musculus (Mouse), UniProt P18911); experiment: Transactivation assay for RARγ (gal4-RAR fusion, pFR-luc reporter, COS-7 cells), Table 2; conditions: for RARγ/RARβ ratio: fold-selectivity for RARβ over RARγ, >1 = selective for RARβ
Sequence of RARγ (P18911 185-419): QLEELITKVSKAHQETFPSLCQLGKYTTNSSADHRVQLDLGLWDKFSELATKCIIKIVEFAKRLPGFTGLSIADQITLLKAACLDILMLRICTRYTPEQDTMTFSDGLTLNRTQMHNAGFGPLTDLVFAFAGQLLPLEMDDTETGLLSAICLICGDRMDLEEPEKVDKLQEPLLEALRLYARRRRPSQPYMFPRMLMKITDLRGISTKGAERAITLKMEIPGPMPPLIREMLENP
Method: (§1) Transcriptional transactivation assays were performed with gal4 fusion receptor constructs, created using each of the RAR ligand binding domains of either mouse or human, co-transfected with the pFR-luc (Stratagene) reporter construct in COS-7 cells.
(§2) Briefly, on day 1, 96 well plates were seeded with 8000 cells per well then left to recover overnight. On day 2, the cells were co-transfected with 100 ng of reporter plasmid and 10 ng of the appropriate receptor plasmid per well using lipofectamine (Invitrogen). On day 3, the lipofectamine containing media was replaced by a DMEM without phenol red, followed by the addition of test compound dissolved in 1 μL of DMSO to each well's 100 μL total volume. Finally, on day 4, the cells were lysed and their luciferase substrate was provided by the BrightGlo™ reagent (Promega), the plates were then read on the MicroBeta TriLux™ (Perkin Elmer).
(§3) Data for test compounds are quoted as EC50 values. Where replicate data has been generated, the data are quoted as the mean EC50 from the separate experiments.
(§4) EC50's values are reported as mean values of three or more determinations.

[2] = molecular target: RARα (Mus musculus (Mouse), UniProt P11416); experiment: Transactivation assay for RARα (gal4-RAR fusion, pFR-luc reporter, COS-7 cells), Table 2; conditions: for RARα/RARβ ratio: fold-selectivity for RARβ over RARα, >1 = selective for RARβ
Sequence of RARα (P11416 183-417): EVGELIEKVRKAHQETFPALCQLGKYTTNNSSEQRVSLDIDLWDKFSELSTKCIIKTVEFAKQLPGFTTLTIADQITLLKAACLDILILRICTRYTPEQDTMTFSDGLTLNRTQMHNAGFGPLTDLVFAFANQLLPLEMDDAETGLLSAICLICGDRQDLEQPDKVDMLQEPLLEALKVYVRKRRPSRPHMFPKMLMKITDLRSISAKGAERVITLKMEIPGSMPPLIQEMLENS
Method: as §1, §2, §3, §4

[3] = molecular target: RARβ (Mus musculus (Mouse), UniProt P22605); experiment: Transactivation assay for RARβ (gal4-RAR fusion, pFR-luc reporter, COS-7 cells), Table 2; conditions: COS-7 reporter, mean of three or more determinations, species not stated (method: mouse or human)
Sequence of RARβ (P22605 210-444): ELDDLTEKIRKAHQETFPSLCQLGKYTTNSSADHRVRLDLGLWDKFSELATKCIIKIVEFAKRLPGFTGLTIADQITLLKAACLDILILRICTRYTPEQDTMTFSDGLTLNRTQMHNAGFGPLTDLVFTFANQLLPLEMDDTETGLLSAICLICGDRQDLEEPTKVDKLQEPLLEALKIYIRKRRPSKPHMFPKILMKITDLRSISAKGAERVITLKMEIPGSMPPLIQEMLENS
Method: as §1, §2, §3, §4

[4] = Table 2, COS-7 reporter, mean of three or more determinations, inactive = no agonist action at highest concentration tested

| Compound | EC50 [1, 4] [nM] | RARγ/RARβ ratio [1] | EC50 [2, 4] [nM] | RARα/RARβ ratio [2] | EC50 [3] [nM] | RARγ EC50 [1, 4] | RARα EC50 [2, 4] |
| --- | --- | --- | --- | --- | --- | --- | --- |
| Cc1ccc(C)c2oc(-c3nc(-c4ccc(C(=O)O)cc4Br)no3)cc12 [BHBA-003, 3-Bromo-4-(5-(4,7-dimethylbenzofuran-2-yl)-1,2,4-oxadiazol-3-yl)benzoic acid] | 36 | 2 | 160 | 10 | 16 |  |  |
| Cc1ccc(C)c2oc(-c3nc(-c4ccc(C(=O)O)cc4C(F)(F)F)no3)cc12 [BHBA-004, 4-(5-(4,7-Dimethylbenzofuran-2-yl)-1,2,4-oxadiazol-3-yl)-3-(trifluoromethyl)benzoic acid] |  |  |  |  | 10 | inactive | inactive |
| Cc1ccc(C)c2oc(-c3nc(-c4ccc(C(=O)O)cc4N)no3)cc12 [BHBA-005, 3-Amino-4-(5-(4,7-dimethylbenzofuran-2-yl)-1,2,4-oxadiazol-3-yl)benzoic acid] | 55 | 2 | 130 | 5 | 23 |  |  |
| Cc1cc(-c2noc(-c3cc4c(C)ccc(C)c4o3)n2)ccc1C(=O)O [BHBA-006, 2-Methyl-4-(5-(4,7-dimethylbenzofuran-2-yl)-1,2,4-oxadiazol-3-yl)benzoic acid] | 25 | 2 | 89 | 6 | 14 |  |  |
| Cc1cc(-c2noc(-c3cc4c(Cl)ccc(Cl)c4o3)n2)ccc1C(=O)O [BHBA-013, 2-Methyl-4-(5-(4,7-dichlorobenzofuran-2-yl)-1,2,4-oxadiazol-3-yl)benzoic acid] | 110 |  | 140 |  | 16 |  |  |
| Cc1ccc(Cl)c2cc(-c3nc(-c4ccc(C(=O)O)cc4Cl)no3)oc12 [BHBA-018, 3-Chloro-4-(5-(4-chloro-7-methylbenzofuran-2-yl)-1,2,4-oxadiazol-3-yl)benzoic acid] | 140 |  | 150 |  | 41 |  |  |
| O=C(O)c1ccc(-c2noc(-c3cc4c(C(F)(F)F)ccc(F)c4o3)n2)c(Cl)c1 [BHBA-020, 3-Chloro-4-(5-(7-fluoro-4-(trifluoromethyl)benzofuran-2-yl)-1,2,4-oxadiazol-3-yl)benzoic acid] | 23 |  | 60 |  | 8 |  |  |
| Cc1ccc(C)c2oc(-c3nc(-c4ccc(C(=O)O)cc4)no3)nc12 [BHBA-023, 4-(5-(4,7-Dimethylbenzo[d]oxazol-2-yl)-1,2,4-oxadiazol-3-yl)benzoic acid] | 83 |  |  |  |  |  |  |
| Cc1ccc(C)c2oc(-c3nc(-c4ccc(C(=O)O)cc4Cl)no3)nc12 [BHBA-024, 3-Chloro-4-(5-(4,7-dimethylbenzo[d]oxazol-2-yl)-1,2,4-oxadiazol-3-yl)benzoic acid] | 47 | 2 | 180 | 7.5 | 24 |  |  |
| Cc1cc(-c2noc(-c3nc4c(C)ccc(C)c4o3)n2)ccc1C(=O)O [BHBA-025, 4-(5-(4,7-Dimethylbenzo[d]oxazol-2-yl)-1,2,4-oxadiazol-3-yl)-2-methylbenzoic acid] | 140 |  | 150 |  | 41 |  |  |
| Cc1ccc(C)c2oc(-c3nc(-c4ccc(C(=O)O)c(F)c4)no3)nc12 [BHBA-026, 4-(5-(4,7-Dimethylbenzo[d]oxazol-2-yl)-1,2,4-oxadiazol-3-yl)-2-fluorobenzoic acid] | 77 |  | 47 |  | 13 |  |  |
| Cc1ccc(C)c2sc(-c3nc(-c4ccc(C(=O)O)cc4)no3)nc12 [BHBA-027, 4-(5-(4,7-Dimethylbenzo[d]thiazol-2-yl)-1,2,4-oxadiazol-3-yl)benzoic acid] | 25 | 2.7 | 61 | 6.7 | 9 |  |  |
| Cc1cc(C(=O)O)ccc1-c1nc(-c2cc3c(C)ccc(C)c3o2)no1 [BHBA-029, 4-(3-(4,7-Dimethylbenzofuran-2-yl)-1,2,4-oxadiazol-5-yl)-3-methylbenzoic acid] | 19 | 1.3 | 210 | 15 | 14 |  |  |

The remaining molecules from weak to strong by EC50 [1, 4], led by results:

| EC50 [1, 4] [nM] | RARγ/RARβ ratio [1] | EC50 [2, 4] [nM] | RARα/RARβ ratio [2] | EC50 [3] [nM] | RARγ EC50 [1, 4] | RARα EC50 [2, 4] | Compound |
| --- | --- | --- | --- | --- | --- | --- | --- |
| 18 | 2.4 | 56 | 8 | 7.4 |  |  | Cc1ccc(Cl)c2oc(-c3nc(-c4ccc(C(=O)O)cc4Cl)no3)cc12 [BHBA-017, 3-Chloro-4-(5-(7-chloro-4-methylbenzofuran-2-yl)-1,2,4-oxadiazol-3-yl)benzoic acid] |
| 18 | 1.1 | 77 | 5 | 16 |  |  | Cc1ccc(C)c2sc(-c3nc(-c4ccc(C(=O)O)cc4Cl)no3)cc12 [BHBA-022, 3-Chloro-4-(5-(4,7-dimethylbenzo[b]thiophen-2-yl)-1,2,4-oxadiazol-3-yl)benzoic acid] |
| 18 | 1.8 | 58 | 5.8 | 10 |  |  | Cc1ccc(C)c2oc(-c3noc(-c4ccc(C(=O)O)cc4F)n3)cc12 [BHBA-030, 4-(3-(4,7-Dimethylbenzofuran-2-yl)-1,2,4-oxadiazol-5-yl)-3-fluorobenzoic acid] |
| 17 | 1 | 67 | 4 | 17 |  |  | O=C(O)c1ccc(-c2noc(-c3cc4c(Cl)ccc(Cl)c4o3)n2)c(Cl)c1 [BHBA-012, 3-Chloro-4-(5-(4,7-dichlorobenzofuran-2-yl)-1,2,4-oxadiazol-3-yl)benzoic acid] |
| 14 |  | 26 |  | 4.3 |  |  | O=C(O)c1ccc(-c2noc(-c3cc4c(Cl)ccc(Cl)c4o3)n2)cc1 [BHBA-011, 4-(5-(4,7-Dichlorobenzofuran-2-yl)-1,2,4-oxadiazol-3-yl)benzoic acid] |
| 12 |  | 23 |  | 2.9 |  |  | Cc1ccc(Cl)c2oc(-c3nc(-c4ccc(C(=O)O)cc4)no3)cc12 [BHBA-015, 4-(5-(7-Chloro-4-methylbenzofuran-2-yl)-1,2,4-oxadiazol-3-yl)benzoic acid] |
| 11 | 2.6 | 32 | 7.6 | 4.2 |  |  | Cc1ccc(C)c2c(C)c(-c3nc(-c4ccc(C(=O)O)cc4Cl)no3)oc12 [BHBA-009, 3-Chloro-4-(5-(3,4,7-trimethylbenzofuran-2-yl)-1,2,4-oxadiazol-3-yl)benzoic acid] |
| 11 |  | 12 |  | 2 |  |  | O=C(O)c1ccc(-c2noc(-c3cc4c(Cl)ccc(Cl)c4o3)n2)cc1F [BHBA-014, 2-Fluoro-4-(5-(4,7-dichlorobenzofuran-2-yl)-1,2,4-oxadiazol-3-yl)benzoic acid] |
| 8.4 |  | 16 |  | 2.2 |  |  | Cc1ccc(C)c2oc(-c3nc(-c4ccc(C(=O)O)c(F)c4)no3)cc12 [BHBA-007, 2-Fluoro-4-(5-(4,7-dimethylbenzofuran-2-yl)-1,2,4-oxadiazol-3-yl)benzoic acid] |
| 8.3 | 1 | 26 | 3 | 8.2 |  |  | Cc1ccc(C)c2oc(-c3noc(-c4ccc(C(=O)O)cc4)n3)cc12 [BHBA-028, 4-(3-(4,7-Dimethylbenzofuran-2-yl)-1,2,4-oxadiazol-5-yl)benzoic acid] |
| 6.8 |  | 17 |  | 1.9 |  |  | Cc1ccc(C)c2c(C)c(-c3nc(-c4ccc(C(=O)O)cc4)no3)oc12 [BHBA-008, 4-(5-(3,4,7-Trimethylbenzofuran-2-yl)-1,2,4-oxadiazol-3-yl)benzoic acid] |
| 6.3 | 2 | 30 | 9 | 3.4 |  |  | Cc1ccc(C)c2sc(-c3nc(-c4ccc(C(=O)O)cc4)no3)cc12 [BHBA-021, 4-(5-(4,7-Dimethylbenzo[b]thiophen-2-yl)-1,2,4-oxadiazol-3-yl)benzoic acid] |
| 6 | 2 | 18 | 7 | 2.7 |  |  | Cc1ccc(Cl)c2cc(-c3nc(-c4ccc(C(=O)O)cc4)no3)oc12 [BHBA-016, 4-(5-(4-Chloro-7-methylbenzofuran-2-yl)-1,2,4-oxadiazol-3-yl)benzoic acid] |
| 5.3 | 2 | 19 | 7.6 | 2.5 |  |  | O=C(O)c1ccc(-c2noc(-c3cc4c(C(F)(F)F)ccc(F)c4o3)n2)cc1 [BHBA-019, 4-(5-(7-Fluoro-4-(trifluoromethyl)benzofuran-2-yl)-1,2,4-oxadiazol-3-yl)benzoic acid] |
| 0.53 | 0.18 | 25 | 8 | 2.9 |  |  | Cc1ccc(C(C)C)c2cc(-c3nc(-c4ccc(C(=O)O)cc4)no3)oc12 [BHBA-010, 4-(5-(4-Isopropyl-7-methylbenzofuran-2-yl)-1,2,4-oxadazol-3-yl)benzoic acid] |
